Values joined by “and” are separate entries in the source; they are usually repeats but may differ in a detail not shown here. Equal entries are not always repeated. Where two headings read alike, the source gives them in different places. Each block holds one molecule with its values, some of them ahead of it.
Assays:
[1] = system: mice subjected to a high-fat diet; test: Mice subjected to a high-fat diet for 3 weeks: carcass weight, quadriceps composition, energy balance; format: in vivo, male C57BL/6J mice; settings: high-fat diet 3 weeks
Procedure: (§1) The effect of phytoecdysones is observed on mice subjected to a high-fat diet during 3 weeks.
(§2) The HF high-fat diet involved the intake of large amounts of fat in the form of lard. The mice selected for the study were male C57BL/6J mice, 6 weeks old at the start of the experiment.
Mice not subjected to a high fat diet, forming a normal diet control group, were tested in parallel.
(§3) The mice in the study were grouped according to the dietary regimes and treatments to which they were subjected: normal or control diet (LF), high-fat diet (HF), high-fat diet supplemented with quinoa extract (HFQ) and high-fat diet supplemented with pure 20-hydroxyecdysone (HF20E).
(§4) The mice were subjected to the dietary regimes detailed in Table 1 below for three weeks and the mice fed a high-fat diet were treated in parallel with pure 20E or extract A (2% 20E). The concentration of 20E was adjusted to equal 40 mg per kg of food.
In light of the average food intake of the mice, the dose of 20E administered corresponded in the two treatments to 5 mg of 20E per kg of body weight per day. The food was supplied in excess every day for both dietary regimes and all three treatments. On average, 40 g of food was provided per cage per day or 6.5 g of food per mouse per day.
Table 1 below sets out in greater detail the composition of the diets to which mice were subjected:
Following sacrifice, aliquots of muscle (quadriceps) were collected for analysis. FIG. 2 illustrates a graph plotting muscle triglyceride content against diet and associated treatment.

[2] = system: UCP2 gene transcripts; test: Quantity of UCP2 gene transcripts (mRNA) in muscle of high-fat diet mice; format: in vivo, male C57BL/6J mice; settings: high-fat diet 3 weeks, 5 mg of 20E per kg body weight per day; vs high-fat diet alone
From the text: as §1, §2, §3, §4
(§5) In light of the average food intake of the mice, the dose of 20E administered corresponded in the two treatments to 5 mg of 20E per kg of body weight per day. The food was supplied in excess every day for both dietary regimes and all three treatments. […]
(§6) FIG. 4 illustrates a graph plotting quantities of gene transcripts (mRNA), as measured in the muscle, against diet and associated treatment. The quantities have been normalized with respect to the quantities measured in the muscles of mice fed the control diet.

[3] = system: UCP3 gene transcripts; test: Quantity of UCP3 gene transcripts (mRNA) in muscle of high-fat diet mice; format: in vivo, male C57BL/6J mice; settings: high-fat diet 3 weeks, 5 mg of 20E per kg body weight per day; vs high-fat diet alone
From the text: as §1, §2, §3, §4, §5, §6

[4] = system: CPT-1 intracellular fatty acid transporter gene transcripts; test: Quantity of CPT-1 gene transcripts (mRNA) in muscle of high-fat diet mice; format: in vivo, male C57BL/6J mice; settings: high-fat diet 3 weeks, 5 mg of 20E per kg body weight per day
From the text: as §1, §2, §3, §4, §5, §6

[5] = system: C2C12 myoblast; test: C2C12 myoblast differentiation (fusion index, number of nuclei per myotube); format: cell-based, mouse; settings: for EC50: C2C12 myoblasts, 6-day differentiation in the presence of the drug, read-out: EC50 for number of nuclei per myotube increase
Procedure: FIGS. 10A-B are graphs of BIO101 efficacy 50% value (EC50) determination on myoblasts differentiation. The fusion index and number of nuclei per myotubes were measured after 6-day differentiation in the presence of the drug.
The fusion index and the number of nuclei per myotube are recognized parameters of myoblast differentiation. The fusion index was calculated as the ratio of nuclei in fused MHC-positive cells 2 nuclei per cells) to the total nuclei number. […] EC50 values (efficacious doses 50%) for each parameter were calculated by the integration of effect vs [BIO101] curves.

[6] = system: C2C12 cells; test: Protein synthesis in differentiated C2C12 myotubes by [3H]-leucine incorporation; format: cell-based, mouse; settings: 0.1 μM, vs untreated control
From the text: FIGS. 11A-B are graph of effects of 20-hydroxyecdysone (20E) on protein synthesis and myostatin gene expression in C2C12 cells. […] Results are shown as means±SEM, ***p<0.001, **p<0.01, *p<0.05 vs untreated control (Kruskal-Wallis followed by a Dunn's test).

[7] = system: myostatin gene expression; test: Myostatin gene expression in C2C12 myotubes by qRT-PCR; format: cell-based, mouse; settings: 6 hours, vs untreated control
Procedure: In FIG. 11B, C2C12 mouse myoblasts were differentiated for 6 days into myotubes. They were then treated for 6 hours with concentrations of 20E ranging from 0.001 to 10 μM. Myostatin gene expression was detected by qRT-PCR. Results are shown as means±SEM with ***p<0.001, **p<0.01, *p<0.05 vs untreated control (one-way ANOVA with Dunnett's test compared to untreated control).

[8] = Single ascending dose study, clinical Phase 1: plasma levels; format: in vivo; settings: human; for Cmax: plasma, SAD, read-out: Maximal plasma concentration (Cmax)
Procedure: A single ascending BIO101 dose study during clinical Phase 1 trial is performed. […] This low concentration is clearly below optimal conditions (with only 26 and 32% of efficacy for two selected markers of differentiation, see FIGS. 10A-B) and is not responsible for significant efficacy in terms of anabolism (FIGS. 11A-B).
FIG. 12A-B are graphs of plasma levels of BIO101 in human following 100, 350 and 700 mg administration.

[9] = system: sarcopenic patients; test: Clinical trial in sarcopenic patients: gait speed in 400 meters walking test; format: in vivo, human; settings: 6 months; for improvement in gait speed in 400 meters walking test compared to placebo: 700 mg daily
From the text: After 6 months of treatment, an improvement of 0.09 m/s in the full analyze set (FAS) population and 0.10 m/s in the per protocol (PP) population (treatment effect significant, p<0.01) were observed. This effect of Sarconeos (BIO101) corresponds to the minimal clinically important difference (MCID) in sarcopenia (0.1 m/s), associated with a reduction in mobility and disability in elderly (Perera et al. 2006).

[10] = Multiple ascending dose study, clinical Phase 1: adverse events; format: in vivo; settings: human, daily administrations of 900 mg, MAD
Procedure: A multiple ascending BIO101 dose study was performed during clinical Phase 1 trial. […] For this reason, in clinical Phase 2, the daily dose of 900 mg was not tested.

SMILES: CC(C)(O)CC[C@@H](O)[C@](C)(O)[C@H]1CC[C@@]2(O)C3=CC(=O)[C@@H]4C[C@@H](O)[C@@H](O)C[C@]4(C)[C@H]3CC[C@]12C [20E, 20-hydroxyecdysone]
energy expenditure higher than high-fat diet alone ([1]; 5 mg of 20E per kg body weight per day): 9%
food intake (energy, kcal) ([1]; 5 mg of 20E per kg body weight per day, compared with animals fed the standard diet): same amount of energy
higher muscle protein content (quadriceps) ([1]; 5 mg of 20E per kg body weight per day, trend, compared to HF treatment alone): 5%
lower muscle triglyceride content (quadriceps) ([1]; 5 mg of 20E per kg body weight per day, trend, vs high-fat diet alone): 26%
lean body mass (carcass defatted) / carcass weight ([1]; 5 mg of 20E per kg of body weight per day in food, vs high-fat diet alone): increase that has allowed the mice to return virtually to the same level as the normal diet
quantity of UCP2 gene transcripts in muscle [2]: tendency to increased quantities
quantity of UCP3 gene transcripts in muscle [3]: increase
quantity of CPT-1 gene transcripts in muscle [4]: tends to restore transcript levels to those seen for the control diet

EC50 [5]: 550 nM
EC50 ([5]; Mus musculus, C2C12, 144 h): 556 nM
plasma exposure (maximal concentration from plot vs administered dose) ([8]; 175 mg administration (5 mg/kg for a 35 kg patient), read from FIG. 12B): 0.4 µM
Cmax ([8]; 100 mg dose): 260 nM and 126 ng/mL
Cmax ([8]; 350 mg dose): 630 nM and 304 ng/mL
Cmax ([8]; 700 mg dose): 780 nM and 374 ng/mL
SMILES: CC(C)(O)CC[C@@H](O)[C@](C)(O)[C@H]1CC[C@@]2(O)C3=CC(=O)[C@@H]4C[C@@H](O)[C@@H](O)C[C@]4(C)[C@H]3CC[C@]12C [BIO101]
% of efficacy on differentiation marker (first marker, fusion index) ([5]; at 0.26 μM, the plasma peak of a 100 mg dose, read from FIG. 10A): 26%
% of efficacy on differentiation marker (second marker, number of nuclei per myotube) ([5]; at 0.26 μM, the plasma peak of a 100 mg dose, read from FIG. 10B): 32%
effect on protein synthesis [6]: not yet significant
inhibition of myostatin gene expression ([7]; 0.1 μM): not yet significant
inhibition of myostatin gene expression ([7]; concentration equal or higher than 0.5 μM): significant
gait speed in 400 meters walking test compared to placebo ([9]; 350 mg daily, notably in a frail sub population of the FAS): improvement
improvement in gait speed in 400 meters walking test compared to placebo ([9]; full analyze set (FAS) population): 0.09 m/s
improvement in gait speed in 400 meters walking test compared to placebo ([9]; per protocol (PP) population, p<0.01): 0.10 m/s
treatment-related TEAEs (treatment-emergent adverse events) [10]: high number of subjects with treatment-related TEAEs

Reference: patent US20220079956A1, “MAINTENANCE OF AGING MUSCLE TISSUE” (BIOPHYTIS SA, priority 2011, published 2022)
